Data reported in BindingDB's records for patent WO2022098970 (Eli Lilly, 2022).

Legend:
Experiment in all cases: RET Enzyme Assay
[1] = target: Proto-oncogene tyrosine-protein kinase receptor Ret [G810S] (Homo sapiens, UniProt P07949, G810S)
Experimental: (§1) Compounds of formulas I, la to lx, Ila to IIx, and/or Illa to IIIx are screened for their ability to inhibit wildtype, V804M, and G810S mutant RET kinase using CisBio s HTRF KinEASE -TK assay technology. N-terminal GST tagged recombinant human RET cytoplasmic domain (aa 658-end) from Eurofins (1.25 nM RET; Catalog No. 14-570M) or N-terminal GST tagged recombinant human V804M mutant RET cytoplasmic domain (aa 658-end) from Millipore (1.25 nM enzyme; Catalog No. 14-760) or N-Terminal GST-tagged recombinant human G810S (aa-658-end) (1.25 nM Enzyme; produced in insect cells) is incubated with 62.5 nM TK-substrate biotin (CisBio, part of Catalog No. 62TK0PEC) and 1 mM ATP along with test compound (0.4% final DMSO in the assay) in a IX Cisbuio enzymatic buffer consisting of […], 5 mM MgCh, 0.04% BSA and 0.05% Tween20 in a volume of 10 pL. Compounds are typically prepared in a threefold serial dilution in DMSO and added to the assay to give the appropriate final concentration. After a 40-60 min (40 min for V804M, 60 min for WT and G810S) incubation at 22 °C, the reaction is quenched by adding quench solution (10 pL) containing 7.8 nM Streptavidine-XL665 and 0.5X TK-ab-Cryptate in HTRF detection buffer (all from CisBio, part of Cat. No. 62TK0PEC). After a 60-80 min incubation (60 minutes for WT, 80 minutes for V804M and G810S) at 22 °C, the extent of reaction is determined using a PHERastar plate reader via HTRF detection at excitation/emission 337/665 nm. Percent of inhibition is calculated with 0% inhibition referring to control conditions containing no compound (0.4% DMSO only) and 100% inhibition represented by conditions containing no enzyme. The % inhibition values are fit to a 4 parameter logistic curve, and the determined IC5o value is defined as the estimated concentration of inhibitor at the inflexion point of the fitted curve.

[2] = target: Proto-oncogene tyrosine-protein kinase receptor Ret [V804M] (Human, UniProt P07949, V804M)
Proto-oncogene tyrosine-protein kinase receptor Ret [V804M], sequence (P07949 29-1114 V804M limits assumed): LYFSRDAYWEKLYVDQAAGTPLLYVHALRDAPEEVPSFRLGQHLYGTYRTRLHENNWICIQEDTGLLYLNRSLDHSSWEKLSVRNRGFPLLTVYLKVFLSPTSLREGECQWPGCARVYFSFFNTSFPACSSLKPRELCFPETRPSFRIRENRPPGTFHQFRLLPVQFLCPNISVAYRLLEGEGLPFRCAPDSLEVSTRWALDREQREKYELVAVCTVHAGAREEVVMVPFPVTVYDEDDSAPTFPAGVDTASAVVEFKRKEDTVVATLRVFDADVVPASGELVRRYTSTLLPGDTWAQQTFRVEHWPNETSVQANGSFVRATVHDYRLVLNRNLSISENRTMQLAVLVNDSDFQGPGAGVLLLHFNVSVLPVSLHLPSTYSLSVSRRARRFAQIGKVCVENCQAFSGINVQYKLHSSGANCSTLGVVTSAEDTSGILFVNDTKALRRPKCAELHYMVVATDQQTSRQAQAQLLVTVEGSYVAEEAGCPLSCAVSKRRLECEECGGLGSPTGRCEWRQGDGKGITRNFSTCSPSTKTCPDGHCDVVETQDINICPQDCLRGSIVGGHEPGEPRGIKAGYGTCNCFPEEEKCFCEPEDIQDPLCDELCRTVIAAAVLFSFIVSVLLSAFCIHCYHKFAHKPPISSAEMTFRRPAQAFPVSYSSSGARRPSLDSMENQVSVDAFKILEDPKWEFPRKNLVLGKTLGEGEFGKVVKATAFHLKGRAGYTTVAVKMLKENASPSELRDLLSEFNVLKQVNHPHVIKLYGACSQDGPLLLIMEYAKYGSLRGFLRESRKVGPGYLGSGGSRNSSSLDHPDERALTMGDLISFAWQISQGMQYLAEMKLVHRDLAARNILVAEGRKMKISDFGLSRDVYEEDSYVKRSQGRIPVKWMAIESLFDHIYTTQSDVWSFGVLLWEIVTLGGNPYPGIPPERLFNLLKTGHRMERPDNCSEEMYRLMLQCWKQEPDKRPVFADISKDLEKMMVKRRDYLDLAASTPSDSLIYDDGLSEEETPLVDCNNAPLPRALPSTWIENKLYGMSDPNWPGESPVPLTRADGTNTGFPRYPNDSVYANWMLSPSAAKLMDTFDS
Experimental: as §1

[3] = target: Proto-oncogene tyrosine-protein kinase receptor Ret (Homo sapiens, UniProt P07949)
Proto-oncogene tyrosine-protein kinase receptor Ret, sequence (P07949 whole entry): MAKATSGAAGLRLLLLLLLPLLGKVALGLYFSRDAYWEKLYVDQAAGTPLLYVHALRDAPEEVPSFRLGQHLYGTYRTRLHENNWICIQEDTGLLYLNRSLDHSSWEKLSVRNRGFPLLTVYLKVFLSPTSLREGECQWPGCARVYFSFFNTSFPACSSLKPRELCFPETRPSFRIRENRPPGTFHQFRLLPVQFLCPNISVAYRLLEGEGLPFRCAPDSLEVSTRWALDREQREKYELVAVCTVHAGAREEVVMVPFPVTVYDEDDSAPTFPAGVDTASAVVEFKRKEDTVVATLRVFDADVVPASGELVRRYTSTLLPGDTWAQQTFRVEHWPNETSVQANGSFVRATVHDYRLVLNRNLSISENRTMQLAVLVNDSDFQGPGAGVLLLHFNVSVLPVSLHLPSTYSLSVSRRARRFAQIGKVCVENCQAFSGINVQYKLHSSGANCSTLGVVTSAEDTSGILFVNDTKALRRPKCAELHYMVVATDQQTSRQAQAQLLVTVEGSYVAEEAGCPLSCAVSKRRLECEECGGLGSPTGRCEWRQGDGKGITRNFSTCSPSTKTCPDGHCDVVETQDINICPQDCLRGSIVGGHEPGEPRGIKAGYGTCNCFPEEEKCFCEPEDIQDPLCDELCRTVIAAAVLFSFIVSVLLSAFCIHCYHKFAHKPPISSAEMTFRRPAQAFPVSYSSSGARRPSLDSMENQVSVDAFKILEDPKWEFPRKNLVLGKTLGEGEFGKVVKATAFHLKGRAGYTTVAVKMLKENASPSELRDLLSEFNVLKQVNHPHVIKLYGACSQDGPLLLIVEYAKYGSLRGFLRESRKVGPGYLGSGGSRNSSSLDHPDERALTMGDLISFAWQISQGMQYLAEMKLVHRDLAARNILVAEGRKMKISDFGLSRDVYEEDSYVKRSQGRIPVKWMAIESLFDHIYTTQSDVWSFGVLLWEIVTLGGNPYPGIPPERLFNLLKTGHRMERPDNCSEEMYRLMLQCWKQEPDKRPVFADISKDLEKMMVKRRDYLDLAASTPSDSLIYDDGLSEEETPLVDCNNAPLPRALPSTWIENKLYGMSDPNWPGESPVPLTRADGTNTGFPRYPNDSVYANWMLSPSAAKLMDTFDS
Experimental: as §1

Measured: IC50

Proto-oncogene tyrosine-protein kinase receptor Ret [G810S], sequence (P07949 29-1114 G810S limits assumed): as the sequence (P07949 29-1114 V804M limits assumed) above, with M776V, G782S counted along it

CC(C)n1nc(-c2ccc(CC(=O)Nc3cc(CC4(C)CC4)no3)cc2)c(C(N)=O)c1N [WO2022098970, Example 1]
< 150 nM: all assays above

CC(C)n1nc(-c2ccc(CC(=O)Nc3cc(C(C)(C)C(F)(F)F)no3)cc2)c(C(N)=O)c1N [WO2022098970, Example 2]
< 150 nM: all assays above

CC(C)n1nc(-c2ccc(CC(=O)Nc3cc(C4(C)CCCC4)no3)cc2)c(C(N)=O)c1N [WO2022098970, Example 3]
< 150 nM: all assays above

CC(C)n1nc(-c2ccc(CC(=O)Nc3cc(C45CC(F)(C4)C5)no3)cc2)c(C(N)=O)c1N [WO2022098970, Example 4]
< 150 nM: all assays above

CC(C)n1nc(-c2ccc(CC(=O)Nc3cc(C45CC(C4)C5)no3)cc2)c(C(N)=O)c1N [WO2022098970, Example 5]
< 150 nM: all assays above

CC1(n2nc(-c3ccc(CC(=O)Nc4cc(C(C)(C)C(F)(F)F)no4)cc3)c(C(N)=O)c2N)CC1 [WO2022098970, Example 6]
< 150 nM: all assays above

CC(C)n1nc(-c2ccc(CC(=O)Nc3cc(C4(C)CC4)no3)cc2)c(C(N)=O)c1N [WO2022098970, Example 7]
< 150 nM: all assays above

CC(C)n1nc(-c2ccc(CC(=O)Nc3cc(C(C)(C)C(F)(F)F)n(C)n3)cc2)c(C(N)=O)c1N [WO2022098970, Example 8]
< 150 nM: all assays above

CC(C)n1nc(-c2ccc(CC(=O)NC3C=C(C(C)(C)C)SN3)cn2)c(C(N)=O)c1N (configuration not stated) [WO2022098970, Example 10]
< 150 nM: all assays above

CC(C)n1nc(-c2ccc(CC(=O)Nc3cc(C45CC(C(F)(F)F)(C4)C5)no3)cc2)c(C(N)=O)c1N [WO2022098970, Example 153]
< 150 nM: all assays above

CC(C)n1nc(-c2ccc(CC(=O)Nc3cc(CC(C)(C)C)no3)c(F)c2F)c(C(N)=O)c1N [WO2022098970, Example 154]
< 150 nM: all assays above

CC1(n2nc(-c3ccc(CC(=O)Nc4cc(-c5ccc(F)cc5Cl)no4)cc3)c(C(N)=O)c2N)CC1 [WO2022098970, Example 199]
< 150 nM: all assays above

CC1(n2nc(-c3ccc(CC(=O)Nc4cc(C56CC(F)(C5)C6)no4)c(F)c3F)c(C(N)=O)c2N)CC1 [WO2022098970, Example 221]
< 150 nM: all assays above

CC12CC(c3cc(NC(=O)Cc4ccc(-c5nn(C6(C)CC6)c(N)c5C(N)=O)c(F)c4F)on3)(C1)C2 [WO2022098970, Example 222]
< 150 nM: all assays above

CC(C)n1nc(-c2ccc(CC(=O)Nc3cccc(C(F)(F)F)c3)cn2)c(C(N)=O)c1N [WO2022098970, Example 292]
< 150 nM: all assays above

CC(C)n1nc(-c2ccc(CC(=O)Nc3cc(C(C)(C)C(F)(F)F)on3)cn2)c(C(N)=O)c1N [WO2022098970, Example 293]
< 150 nM: all assays above

CC(C)n1nc(-c2ccc(CC(=O)Nc3cc(C4(C)CCCC4)no3)cn2)c(C(N)=O)c1N [WO2022098970, Example 294]
< 150 nM: all assays above

CC(C)n1nc(-c2ccc(CC(=O)Nc3cc(-c4ccccc4)no3)cn2)c(C(N)=O)c1N [WO2022098970, Example 299]
< 150 nM: all assays above

CC(C)n1nc(-c2ccc(CC(=O)Nc3cc(-c4ccc(Cl)cc4Cl)no3)cn2)c(C(N)=O)c1N [WO2022098970, Example 300]
< 150 nM: all assays above

CC(C)n1nc(-c2ccc(CC(=O)Nc3cc(C4CCCCC4)no3)cn2)c(C(N)=O)c1N [WO2022098970, Example 301]
< 150 nM: all assays above

CC(C)n1nc(-c2ccc(CC(=O)Nc3cc(-c4ccc(F)cc4Cl)no3)cn2)c(C(N)=O)c1N [WO2022098970, Example 302]
< 150 nM: all assays above

CCC(C)(C)c1cc(NC(=O)Cc2ccc(-c3nn(C(C)C)c(N)c3C(N)=O)nc2)on1 [WO2022098970, Example 303]
< 150 nM: all assays above

CC(C)n1nc(-c2ccc(CC(=O)Nc3cc(C(C)(F)F)no3)cn2)c(C(N)=O)c1N [WO2022098970, Example 306]
< 150 nM: all assays above

CC(C)n1nc(-c2cnc(CC(=O)Nc3cc(-c4ccc(Cl)cc4Cl)no3)cn2)c(C(N)=O)c1N [WO2022098970, Example 308]
< 150 nM: all assays above

CCC(C)(C)c1cc(NC(=O)Cc2cnc(-c3nn(C(C)C)c(N)c3C(N)=O)cn2)on1 [WO2022098970, Example 310]
< 150 nM: all assays above

CC(C)n1nc(-c2cnc(CC(=O)Nc3cc(C(C)(C)C)on3)cn2)c(C(N)=O)c1N [WO2022098970, Example 311]
< 150 nM: all assays above

CC(C)n1nc(-c2ccc(CC(=O)Nc3cc(-c4ccc(Cl)cc4Cl)no3)nc2)c(C(N)=O)c1N [WO2022098970, Example 316]
< 150 nM: all assays above

CC(C)n1nc(-c2ccc(CC(=O)Nc3cc(-c4ccccc4Cl)no3)nc2)c(C(N)=O)c1N [WO2022098970, Example 317]
< 150 nM: all assays above

CC(C)n1nc(-c2ccc(CC(=O)Nc3cc(C(C)(C)C)on3)nc2)c(C(N)=O)c1N [WO2022098970, Example 318]
< 150 nM: all assays above

CC(C)n1nc(-c2ccc(CC(=O)Nc3cc(-c4ccc(Cl)cc4F)no3)nc2)c(C(N)=O)c1N [WO2022098970, Example 321]
< 150 nM: all assays above

Cc1ccc(-c2cc(NC(=O)Cc3ccc(-c4nn(C(C)C)c(N)c4C(N)=O)cn3)on2)c(F)c1 [WO2022098970, Example 324]
< 150 nM: all assays above

CC(C)n1nc(-c2ccc(CC(=O)Nc3ccc(CN4CCN(C)CC4)c(C(F)(F)F)c3)nc2)c(C(N)=O)c1N [WO2022098970, Example 329]
< 150 nM: all assays above

CC(C)n1nc(-c2ccc(CC(=O)Nc3cc(-c4ccc(Cl)c(F)c4Cl)no3)nc2)c(C(N)=O)c1N [WO2022098970, Example 330]
< 150 nM: all assays above

CC(C)n1nc(-c2ccc(CC(=O)Nc3cc(C(C)(C)CC(F)(F)F)on3)nc2)c(C(N)=O)c1N [WO2022098970, Example 335]
< 150 nM: all assays above
